Values of other authors in patent US20160106774A1, “LIQUID PHARMACEUTICAL COMPOSITION CONTAINING PIROXICAM AND HYALURONIC ACID FOR THE TREATMENT OF OSTEOARTHRITIS” (DONG-A ST CO., LTD, priority 2013, published 2016).

Tested on: carrageenan-induced animal podedema model
Settings: coadministration of NSAID with sodium hyaluronate; piroxicam 4 mg/kg and sodium hyaluronate 4 mg/kg; foot pad

Structure (SMILES) | anti-inflammatory effect of coadministration with sodium hyaluronate
CC(C)Cc1ccc(C(C)C(=O)O)cc1 (stereo not shown) [ibuprofen] | additive or synergistic effects
O=C(O)Cc1ccccc1Nc1c(Cl)cccc1Cl [diclofenac] | additive or synergistic effects
CN1C(C(=O)Nc2ccccn2)=C(O)c2ccccc2S1(=O)=O [piroxicam] | weak
COc1ccc2c(c1)c(CC(=O)O)c(C)n2C(=O)c1ccc(Cl)cc1 [indomethacin] | additive or synergistic effects
